# Source: patent publication US20240016774A1, “IMPLANTABLE DEPOTS FOR LOCALIZED, SUSTAINED, CONTROLLED RELEASE OF THERAPEUTIC AGENTS TO TREAT CANCER AND RELATED CONDITIONS” (Foundry Therapeutics, Inc., priority 2020, published 2024)
# Assay: in vitro drug release (elution) in PBS at 37° C.
# Assay type: physicochemical
# Conditions: docetaxel powder, milled vs unmilled
# Description: Using docetaxel as the example drug, and 10:10:80 PEG10K:PLGA5050:Doce as the baseline formulation for comparison, we show below various novel formulations that can increase in vitro drug elution rates as tested in PBS at 37° C. 10:10:80 PEG10K:PLGA5050:Doce was the formulation that was evaluated in our preclinical studies. Average cumulative drug release % values with linear trend line from the first 14 days were plotted, as shown in FIG. 114. • Baseline=PEG:PLGA:Doce 10:10:80 Rod • Fast=PEG:PLGA:Doce 50:10:40 Rod • Faster=PEG:Doce 60:40 Rod • Raw docetaxel powder, milled or unmilled • Fastest=PEG:Doce 1:1 Particles
# The mechanism of how each of these novel formulations can achieve increased in vitro drug release rate compared to the baseline 10:10:80 PEG10K:PLGA5050:Doce formulation is explained below. We have developed multiple formulations with tunable drug release rates that takes advantage of either decreasing hydrophobicity (by increasing PEG content) or introducing predominantly molecularly dispersed drug into the polymer matrix.
compound,measurement,value
CC(=O)O[C@@]12CO[C@@H]1C[C@H](O)[C@@]1(C)C(=O)[C@H](O)C3=C(C)[C@@H](OC(=O)[C@H](O)[C@@H](NC(=O)OC(C)(C)C)c4ccccc4)C[C@@](O)([C@@H](OC(=O)c4ccccc4)[C@H]21)C3(C)C [docetaxel],dissolution rate after milling,does not significantly increase dissolution rate even after milling
